PubChem BioAssay AID435021 (Vanderbilt High Throughput Screening Facility, 2010)
Active and inactive are the calls of the source.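 The calls were made as follows: active = response to a near-maximal acetylcholine dose cut to 15% or less of untreated controls; inactive = the rest.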

Molecular target: Muscarinic acetylcholine receptor M1 (Homo sapiens) (UniProt P11229)
Assay: M1 receptor antagonist activity of analogs, SAR follow-up, cell-based, CHO-K1 hM1, Fluo-4 calcium, ACh EC80 (AID 435021)
Details: at 30 µM, hits give low values

Muscarinic acetylcholine receptor M1 (Homo sapiens), sequence (P11229 whole entry, looked up): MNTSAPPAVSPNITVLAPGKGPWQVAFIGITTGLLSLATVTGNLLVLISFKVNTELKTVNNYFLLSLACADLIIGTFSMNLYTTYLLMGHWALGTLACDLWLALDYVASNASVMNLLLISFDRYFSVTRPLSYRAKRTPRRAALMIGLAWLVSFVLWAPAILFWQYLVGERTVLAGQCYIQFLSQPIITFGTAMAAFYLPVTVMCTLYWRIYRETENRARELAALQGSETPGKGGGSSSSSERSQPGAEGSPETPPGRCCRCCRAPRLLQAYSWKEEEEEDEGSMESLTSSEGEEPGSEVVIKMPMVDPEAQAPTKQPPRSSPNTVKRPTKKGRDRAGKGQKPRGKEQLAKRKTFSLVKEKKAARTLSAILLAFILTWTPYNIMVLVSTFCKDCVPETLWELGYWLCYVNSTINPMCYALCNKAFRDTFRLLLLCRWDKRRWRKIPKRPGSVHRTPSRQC

SMILES	remaining EC80 response
O=C(C(F)CNS(=O)(=O)c1cccc2nsnc12)N1CCN(c2ccncc2)CC1 (stereo unspecified)	13.6%
COc1cccnc1N1CCN(C(=O)CCNS(=O)(=O)c2ccccc2[N+](=O)[O-])CC1	90% (inactive)
O=C(CCNS(=O)(=O)c1cccc2nsnc12)N1CCN(c2ccccc2F)CC1	63.5% (inactive)
O=C(CCNS(=O)(=O)c1cccc2nsnc12)N1CCN(c2nc3ccccc3s2)CC1	6.19%
O=C(CCNS(=O)(=O)c1cccc2nonc12)N1CCN(c2ccc(Br)cn2)CC1	0.916%
COc1ccccc1N1CCN(C(=O)CCNS(=O)(=O)c2cccc3nsnc23)CC1	102% (inactive)
O=C(C(F)CNS(=O)(=O)c1cccc2nonc12)N1CCN(c2ccncc2)CC1 (stereo unspecified)	2.42%
COc1cccnc1N1CCN(C(=O)C(F)CNS(=O)(=O)c2cccc3nsnc23)CC1 (stereo unspecified)	19.4% (inactive)
COc1cccnc1N1CCN(C(=O)C(F)CNS(=O)(=O)c2cccc3nonc23)CC1 (stereo unspecified)	29.7% (inactive)
O=C([C@H](F)CNS(=O)(=O)c1cccc2nonc12)N1CCN(c2ccncc2)CC1	8.19%
O=C(CCNS(=O)(=O)c1cccc2nsnc12)N1CCN(c2nc3ccccc3o2)CC1	13.3%
COc1cccnc1N1CCN(C(=O)CCNS(=O)(=O)c2cccc(C#N)c2)CC1	97% (inactive)
O=C([C@@H](F)CNS(=O)(=O)c1cccc2nonc12)N1CCN(c2ccncc2)CC1	56.6% (inactive)
COc1cccnc1N1CCN(C(=O)CCNS(=O)(=O)c2cn(C)c(C)n2)CC1	98.5% (inactive)
CN(CCC(=O)N1CCN(c2ccncc2)CC1)S(=O)(=O)c1cccc2nsnc12	35.8% (inactive)
O=C(CCNS(=O)(=O)c1cccc2nsnc12)N1CCN(c2ncccn2)CC1	62.7% (inactive)
COc1cccnc1N1CCN(C(=O)CCNS(=O)(=O)c2ccc3nsnc3c2)CC1	77.1% (inactive)
COc1cccnc1N1CCN(C(=O)CCNS(=O)(=O)c2ccc([N+](=O)[O-])cc2)CC1	92.7% (inactive)
N#Cc1ccccc1N1CCN(C(=O)CCNS(=O)(=O)c2cccc3nsnc23)CC1	43.9% (inactive)
Cc1cc(Cl)nc(N2CCN(C(=O)CCNS(=O)(=O)c3cccc4nsnc34)CC2)c1C#N	3.37%
O=C(CCNS(=O)(=O)c1cccc2nsnc12)N1CCN(c2ncccc2C(F)(F)F)CC1	64.7% (inactive)
COc1cccc(N2CCN(C(=O)CCNS(=O)(=O)c3cccc4nsnc34)CC2)n1	14.4%
COc1cccnc1N1CCN(C(=O)CCNS(=O)(=O)c2cccc(-c3noc(C)n3)c2)CC1	97.5% (inactive)
COc1cccnc1N1CCN(C(=O)CCNS(=O)(=O)c2ccccc2C#N)CC1	91.8% (inactive)
O=C(CCNS(=O)(=O)c1cccc2nonc12)N1CCN(c2ccncc2)CC1	3.02%
O=C(CCNS(=O)(=O)c1cccc2nsnc12)N1CCN(c2nc(Cl)ns2)CC1	31.6% (inactive)

Now from value to molecule:

remaining EC80 response	SMILES
3.23%	O=C(CCNS(=O)(=O)c1cccc2nsnc12)N1CCN(c2cccc(F)n2)CC1
5.92%	O=C(CCNS(=O)(=O)c1cccc2nsnc12)N1CCN(c2cccc(Cl)n2)CC1
8.91%	O=C(CCNS(=O)(=O)c1cccc2nsnc12)N1CCN(c2ccnc(Cl)c2)CC1
35.4% (inactive)	O=C(CCNS(=O)(=O)c1cccc2nsnc12)N1CCN(c2cc(C(F)(F)F)ccn2)CC1
16.5% (inactive)	O=C(CCNS(=O)(=O)c1cccc2nsnc12)N1CCN(c2ccccn2)CC1
-0.332%	O=C(CCNS(=O)(=O)c1cccc2nsnc12)N1CCN(c2ccc(Br)cn2)CC1
7.16%	O=C(CCNS(=O)(=O)c1cccc2nsnc12)N1CCN(c2ncc(Cl)cn2)CC1
5.68%	O=C(CCNS(=O)(=O)c1cccc2nsnc12)N1CCN(c2nccs2)CC1
6.52%	O=C(CCNS(=O)(=O)c1cccc2nsnc12)N1CCN(c2cc(F)ccn2)CC1
35.7% (inactive)	Cc1cccc(N2CCN(C(=O)CCNS(=O)(=O)c3cccc4nsnc34)CC2)n1
1.43%	Cc1cnccc1N1CCN(C(=O)CCNS(=O)(=O)c2cccc3nsnc23)CC1
10.1%	O=C(CCNS(=O)(=O)c1cccc2nsnc12)N1CCN(c2cc(Cl)ccn2)CC1
45.8% (inactive)	Cc1ccnc(N2CCN(C(=O)CCNS(=O)(=O)c3cccc4nsnc34)CC2)c1
13.6%	O=C(CCNS(=O)(=O)c1cccc2nsnc12)N1CCN(c2cccnc2)CC1
1.97%	O=C(CCNS(=O)(=O)c1cccc2nsnc12)N1CCN(c2ccncc2)CC1
